Reference: patent US20050239656A1, “Pyridine compounds or salts thereof and herbicides containing the same” (priority 2002, published 2005)

Key:
crabgrass [1] = assay: Test Example 2: soil surface treatment, upland pot test; format: in vivo, Digitaria sanguinalis L.; conditions: observed 20th to 28th day
Method in brief: (§1)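 Sowing, then next-day soil-surface spray of formulated test compound (fixed a.i. amount, 1,500 L/ha spray volume); visual evaluation of growth inhibition, 0–100%, three to four weeks (days 20–28) after application.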

green foxtail [2] = assay: as above; format: in vivo, Setaria viridis L.; conditions: observed 20th to 28th day
Method in brief: as §1

rice (var. Nihonbare) = assay: Test Example 3: paddy pot test, transplanted rice; format: in vivo, Oryza sativa L.; conditions: applied 4th day after transplantation, visually observed 21st day after application, 0 = non-treated, 100 = complete kill
Method in brief: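 Rice (2-leaf stage) was transplanted 3 cm deep into puddled, leveled paddy soil under 3–4 cm flooding. On day 4 after transplanting, diluted wettable powder or emulsifiable concentrate was pipetted onto the water at a predetermined active-ingredient dose. Growth control (0 = untreated, 100 = complete kill) was scored visually 21 days later.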

green foxtail [3] = assay: Test Example 1: foliage treatment, upland pot test; format: in vivo, Setaria viridis L.; conditions: observed 18th to 23rd day, 0 = non-treated, 100 = complete kill
Source text: (§2) Upland field soil was put into a 1/170,000 ha pot, and seed of various plants were sown. Then, when the plants reached predetermined leaf stages ((1) barnyardgrass: 1.3 to 2.8 leaf stages, (2) crabgrass: 1.0 to 2.8 leaf stages, (3) green foxtail: 1.3 to 2.6 leaf stages, (4) redroot pigweed: 0.1 to 1.2 leaf stages, (5) prickly sida: 0.1 to 1.2 leaf stages, (6) velvetleaf: 0.1 to 1.2 leaf stages, (7) tall morningglory: 0.1 to 1.5 leaf stages, (8) rice: 1.2 to 2.6 leaf stages, (9) wheat: 1.3 to 2.4 leaf stages, (10) corn, 2.1 to 3.2 leaf stages, (11) soybean: 0.1 to 0.4 leaf stage), a wettable powder or emulsifiable concentrate having the compound of the present invention formulated in accordance with a usual formulation method, was weighed so that the active ingredient would be a predetermined amount, and diluted with water in an amount of 500 L/ha. To the diluted solution, 0.1% (v/v) of agricultural spreader was added. The herbicide thus adjusted was applied by a small size sprayer for foliage treatment. On the 18th to 23rd days after the application of the herbicide, the growth of the respective plants was visually observed, and the herbicidal effects were evaluated by the growth controlling degrees (%) ranging from 0 (equivalent to the non-treated plot) to 100 (complete kill), whereby the results shown in Table 3, were obtained.

corn [4] = assay: Test Example 2: soil surface treatment, upland pot test; format: in vivo, Zea mays L.; conditions: observed 20th to 28th day
Method in brief: as §1

prickly sida [5] = assay: Test Example 1: foliage treatment, upland pot test; format: in vivo, Sida spinosa L.; conditions: observed 18th to 23rd day, 0 = non-treated, 100 = complete kill
velvetleaf [6] = assay: Test Example 1: foliage treatment, upland pot test; format: in vivo, Abutilon theophrasti MEDIC.; conditions: observed 18th to 23rd day, 0 = non-treated, 100 = complete kill
rice [7] = assay: Test Example 1: foliage treatment, upland pot test; format: in vivo, Oryza sativa L.; conditions: crop, observed 18th to 23rd day, 0 = non-treated, 100 = complete kill
Method in brief: (§3)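 Each plant species was sprayed once on its foliage, with wheat at 1.3–2.4, soybean at 0.1–0.4, barnyardgrass at 1.3–2.8 and rice at 1.2–2.6 leaves. Visual ratings of growth inhibition, 0 to 100%, followed 18–23 days later.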

soybean [8] = assay: Test Example 1: foliage treatment, upland pot test; format: in vivo, Glycine max Merr.; conditions: crop, observed 18th to 23rd day, 0 = non-treated, 100 = complete kill
Method in brief: as §3

japanese bulrush = assay: Test Example 3: paddy pot test, application under submerged conditions; format: in vivo, Scirpus juncoides; conditions: submerged application at 0.5 leaf stage, visually observed 14 days after application, 0 = non-treated, 100 = complete kill
Method in brief: (§4)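 After sowing seeds and planting wapato tubers in flooded paddy soil, an aqueous dilution of the formulated compound was added to the 3–4 cm flood water at early leaf stage. Percent growth control relative to the untreated plot was assessed visually on day 14.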

crabgrass [9] = assay: Test Example 1: foliage treatment, upland pot test; format: in vivo, Digitaria sanguinalis L.; conditions: observed 18th to 23rd day, 0 = non-treated, 100 = complete kill
Source text: as §2

barnyardgrass [10] = assay: Test Example 2: soil surface treatment, upland pot test; format: in vivo, Echinochloa crus-galli L.; conditions: observed 20th to 28th day
Method in brief: as §1

redroot pigweed [11] = assay: as above; format: in vivo, Amaranthus retroflexus L.; conditions: observed 20th to 28th day
Method in brief: as §1

japanese ribbon wapato = assay: Test Example 3: paddy pot test, application under submerged conditions; format: in vivo, Sagittaria pygniaea; conditions: submerged application at primary leaf stage, visually observed 14 days after application, 0 = non-treated, 100 = complete kill
Method in brief: as §4

redroot pigweed [12] = assay: Test Example 1: foliage treatment, upland pot test; format: in vivo, Amaranthus retroflexus L.; conditions: observed 18th to 23rd day, 0 = non-treated, 100 = complete kill
barnyardgrass [13] = assay: Test Example 1: foliage treatment, upland pot test; format: in vivo, Echinochloa crus-galli L.; conditions: observed 18th to 23rd day, 0 = non-treated, 100 = complete kill
Method in brief: as §3

prickly sida [14] = assay: Test Example 2: soil surface treatment, upland pot test; format: in vivo, Sida spinosa L.; conditions: observed 20th to 28th day
Method in brief: as §1

corn [15] = assay: Test Example 1: foliage treatment, upland pot test; format: in vivo, Zea mays L.; conditions: crop, observed 18th to 23rd day, 0 = non-treated, 100 = complete kill
Method in brief: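 In this upland pot foliage test, corn plants at 2.1 to 3.2 leaf stages were sprayed by a small size sprayer. The spray was a conventionally formulated wettable powder or emulsifiable concentrate weighed to a set active ingredient amount, diluted in water at 500 L/ha, plus 0.1% (v/v) agricultural spreader. Visual assessment on days 18 to 23 gave growth controlling degree (%), where 0 equals untreated and 100 means complete kill.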

velvetleaf [16] = assay: Test Example 2: soil surface treatment, upland pot test; format: in vivo, Abutilon theophrasti MEDIC.; conditions: observed 20th to 28th day
Method in brief: as §1

soybean [17] = assay: as above; format: in vivo, Glycine max Merr.; conditions: observed 20th to 28th day
Method in brief: as §1

rice [18] = assay: as above; format: in vivo, Oryza sativa L.; conditions: observed 20th to 28th day
Method in brief: as §1

barnyardgrass [19] = assay: Test Example 3: paddy pot test, application under submerged conditions; format: in vivo, Echinochloa crus-galli L.; conditions: active ingredient 250 g/ha; submerged application at 0.5 leaf stage; visually observed 14 days after application; 0 = non-treated, 100 = complete kill
Method in brief: as §4

| SMILES | Growth controlling degree (%) Crabgrass (crabgrass [1]; active ingredient 500 g/ha) | Growth controlling degree (%) Green foxtail (green foxtail [2]; active ingredient 500 g/ha) | Growth controlling degree (%) Rice (rice (var. Nihonbare); active ingredient 500 g/ha) | Growth controlling degree (%) Corn (corn [4]; active ingredient 500 g/ha) | Growth controlling degree (%) Japanese bulrush (japanese bulrush; active ingredient 500 g/ha) | Growth controlling degree (%) Barnyardgrass (barnyardgrass [10]; active ingredient 500 g/ha) | Growth controlling degree (%) Redroot pigweed (redroot pigweed [11]; active ingredient 500 g/ha) | Growth controlling degree (%) Japanese ribbon wapato (japanese ribbon wapato; active ingredient 500 g/ha) | Growth controlling degree (%) Prickly sida (prickly sida [14]; active ingredient 500 g/ha) | Growth controlling degree (%) Velvetleaf (velvetleaf [16]; active ingredient 500 g/ha) | Growth controlling degree (%) Soyabean (soybean [17]; active ingredient 500 g/ha) | Growth controlling degree (%) Rice (rice [18]; active ingredient 500 g/ha) | Growth controlling degree (%) Green foxtail (green foxtail [3]; active ingredient 500 g/ha) | Growth controlling degree (%) Prickly sida (prickly sida [5]; active ingredient 500 g/ha) | Growth controlling degree (%) Velvetleaf (velvetleaf [6]; active ingredient 500 g/ha) | Growth controlling degree (%) Rice (rice [7]; active ingredient 500 g/ha) | Growth controlling degree (%) Soybean (soybean [8]; active ingredient 500 g/ha) | Growth controlling degree (%) Crabgrass (crabgrass [9]; active ingredient 500 g/ha) | Growth controlling degree (%) Redroot pigweed (redroot pigweed [12]; active ingredient 500 g/ha) | Growth controlling degree (%) Barnyardgrass (barnyardgrass [13]; active ingredient 500 g/ha) | other results |
| --- | --- | --- | --- | --- | --- | --- | --- | --- | --- | --- | --- | --- | --- | --- | --- | --- | --- | --- | --- | --- | --- |
| CC(C)C(c1cnccc1C(F)(F)F)N(C)C(=O)Cc1ccc(F)cc1F (centres unmarked) [I-18] | 100% | 100% | 10% | 50% | 90% | 100% | 80% | 90% | 80% | 80% | 50% | 20% |  |  |  |  |  |  |  |  | Growth controlling degree (%) Green foxtail (green foxtail [3]; active ingredient 1000 g/ha): 70%; Growth controlling degree (%) Prickly sida (prickly sida [5]; active ingredient 1000 g/ha): 90%; Growth controlling degree (%) Velvetleaf (velvetleaf [6]; active ingredient 1000 g/ha): 90%; Growth controlling degree (%) Rice (rice [7]; active ingredient 1000 g/ha): 50%; Growth controlling degree (%) Soybean (soybean [8]; active ingredient 1000 g/ha): 70%; Growth controlling degree (%) Crabgrass (crabgrass [9]; active ingredient 1000 g/ha): 90%; Growth controlling degree (%) Redroot pigweed (redroot pigweed [12]; active ingredient 1000 g/ha): 90%; Growth controlling degree (%) Barnyardgrass (barnyardgrass [13]; active ingredient 1000 g/ha): 90%; Growth controlling degree (%) Corn (corn [15]; active ingredient 1000 g/ha): 80% |
| CC(C)C(c1cnccc1C(F)(F)F)N(C)C(=O)Cc1cccc(F)c1F (centres unmarked) [I-19] | 100% | 100% | 35% | 30% | 95% | 95% | 80% | 95% | 98% | 80% | 30% | 10% |  |  |  |  |  |  |  |  | Growth controlling degree (%) Green foxtail (green foxtail [3]; active ingredient 1000 g/ha): 70%; Growth controlling degree (%) Prickly sida (prickly sida [5]; active ingredient 1000 g/ha): 80%; Growth controlling degree (%) Velvetleaf (velvetleaf [6]; active ingredient 1000 g/ha): 80%; Growth controlling degree (%) Rice (rice [7]; active ingredient 1000 g/ha): 20%; Growth controlling degree (%) Soybean (soybean [8]; active ingredient 1000 g/ha): 90%; Growth controlling degree (%) Crabgrass (crabgrass [9]; active ingredient 1000 g/ha): 90%; Growth controlling degree (%) Redroot pigweed (redroot pigweed [12]; active ingredient 1000 g/ha): 80%; Growth controlling degree (%) Barnyardgrass (barnyardgrass [13]; active ingredient 1000 g/ha): 80%; Growth controlling degree (%) Corn (corn [15]; active ingredient 1000 g/ha): 50% |
| CC(C)C(c1cnccc1C(F)(F)F)N(C)C(=O)Cc1ccc(F)cc1 (centres unmarked) [I-21] |  |  | 40% |  | 98% |  |  | 100% |  |  |  |  | 70% | 90% | 95% | 20% | 70% | 95% | 90% | 80% | Growth controlling degree (%) Crabgrass (crabgrass [1]; active ingredient 250 g/ha): 98%; Growth controlling degree (%) Green foxtail (green foxtail [2]; active ingredient 250 g/ha): 90%; Growth controlling degree (%) Corn (corn [4]; active ingredient 250 g/ha): 50%; Growth controlling degree (%) Barnyardgrass (barnyardgrass [10]; active ingredient 250 g/ha): 60%; Growth controlling degree (%) Redroot pigweed (redroot pigweed [11]; active ingredient 250 g/ha): 90%; Growth controlling degree (%) Prickly sida (prickly sida [14]; active ingredient 250 g/ha): 80%; Growth controlling degree (%) Corn (corn [15]; active ingredient 500 g/ha): 30%; Growth controlling degree (%) Velvetleaf (velvetleaf [16]; active ingredient 250 g/ha): 70%; Growth controlling degree (%) Soyabean (soybean [17]; active ingredient 250 g/ha): 20%; Growth controlling degree (%) Rice (rice [18]; active ingredient 250 g/ha): 40% |
| CC(C)C(c1cnccc1C(F)(F)F)N(C)C(=O)Cc1cccc(C(F)(F)F)c1F (centres unmarked) [I-29] | 99% | 100% |  | 20% |  | 100% | 70% |  | 98% | 70% | 10% | 30% | 60% | 80% | 80% | 10% | 50% | 90% | 80% | 60% | Growth controlling degree (%) Barnyardgrass (barnyardgrass [19]): 100%; Growth controlling degree (%) Rice (rice (var. Nihonbare); active ingredient 250 g/ha): 10%; Growth controlling degree (%) Japanese bulrush (japanese bulrush; active ingredient 250 g/ha): 70%; Growth controlling degree (%) Japanese ribbon wapato (japanese ribbon wapato; active ingredient 250 g/ha): 10%; Growth controlling degree (%) Corn (corn [15]; active ingredient 500 g/ha): 10% |
| CC(C)C(c1cnccc1C(F)(F)F)N(C)C(=O)Cc1c(F)cccc1Cl (centres unmarked) [I-33] | 100% | 90% |  | 30% |  | 100% | 80% |  | 80% | 90% | 0% | 10% | 70% | 70% | 80% | 30% | 40% | 80% | 60% | 20% | Growth controlling degree (%) Barnyardgrass (barnyardgrass [19]): 100%; Growth controlling degree (%) Rice (rice (var. Nihonbare); active ingredient 250 g/ha): 10%; Growth controlling degree (%) Japanese bulrush (japanese bulrush; active ingredient 250 g/ha): 85%; Growth controlling degree (%) Japanese ribbon wapato (japanese ribbon wapato; active ingredient 250 g/ha): 90%; Growth controlling degree (%) Corn (corn [15]; active ingredient 500 g/ha): 0% |
